From patent publication US12104180B2, “Enzyme with acyl transfer function and application thereof” (OCEAN UNIVERSITY OF CHINA, priority 2020, dated 2024)
Numbering of substitutions follows the chain as printed. Numbers in names are those of the source.

Legend:
[1] = tested on: methicillin-resistant Staphylococcus aureus; conditions: cited from earlier work
[2] = tested on: vancomycin-resistant Enterococci; conditions: cited from earlier work
[3] = tested on: Burkholderia cepacia varieties; conditions: cited from earlier work
[4] = tested on: B1-F10 murine melanoma cells; conditions: cited from earlier work
[5] = tested on: mammalian herpes simplex virus; conditions: cited from earlier work
HIV virus = conditions: cited from earlier work
Staphylococcus aureus = conditions: cited from earlier work
Pyricularia oryzae = conditions: cited from earlier work
Alternaria alternata = conditions: cited from earlier work
[6] = format: biochemical; conditions: 30° C., 2 h, substrate Macrolactin A

CC1CCCC=CC=CC(O)CC(O)CC=CC=CC(OC(=O)CC(=O)O)CC=CC=CC(=O)O1 (centres unmarked) [7-O-malonyl Macrolactin A]
inhibition of methicillin-resistant Staphylococcus aureus [1]: can sufficiently inhibit
inhibition of vancomycin-resistant Enterococci [2]: can sufficiently inhibit
inhibition of Burkholderia cepacia varieties [3]: can sufficiently inhibit

C[C@@H]1CCC/C=C/C=C/[C@H](O)C[C@@H](O)C/C=C\C=C\[C@@H](O)C/C=C/C=C\C(=O)O1 [Macrolactin A]
inhibition of B1-F10 murine melanoma cells [4]: can inhibit
inhibition of mammalian herpes simplex virus [5]: can inhibit
protection of lymphocytes through inhibiting HIV virus (HIV virus): can protect lymphocytes

Macrolactin B
inhibition of Staphylococcus aureus (Staphylococcus aureus): inhibit
effect on plant pathogenic fungus Pyricularia oryzae (Pyricularia oryzae): obvious effects
effect on plant pathogenic fungus Alternaria alternata (Alternaria alternata): obvious effects

Macrolactin T
inhibition of Staphylococcus aureus (Staphylococcus aureus): inhibit
effect on plant pathogenic fungus Pyricularia oryzae (Pyricularia oryzae): obvious effects
effect on plant pathogenic fungus Alternaria alternata (Alternaria alternata): obvious effects

B1: wild-type BmmI protein: acyltransferase BmmI from marine-derived Bacillus methylotrophicus B-9987, sequence SEQ ID NO:1 (protein)
chain: MKQTISNPAFDMKQINALNGHYQTMIDNGDLQCASYMMSRGGEVFAAESLGEFTGGQKEKQTFQLDTIREIGSLTKVFTAVAVMQLVEKGLLDLKMPVKLILPAFDKPGFGEIKILHLLTHTAGLSFELDIQKAEGIDLTNEEEWINYLVSTPLEYGVDEAWNYSRTGFVILGIIISKVTGVSYEQYVTKHIIEALGLERTYFYVPDTLKEEVCVISEHECVQLEKSHHPYFPNKATSGLYSSLRDIWKLAEMFRNKGRLKDKKLLGRKTVEAMLRNQIKPGLPFYFFGAPREEGGFGLGINLWPAGDHYFMTEGTFSHLGMGWCGMFSDPAEDFTYVFFTPISEFHPHAVLTPLNIVWAGIE
modifications: bmmI acyltransferase protease sequence
acyl donors recognized (side chain length) ([6]; FIG. 7): malonyl-CoA (C3), succinyl-CoA (C4), glutaryl-CoA (C5) and hexanedioyl-CoA (C6)

B2: R166G (protein)
chain: B1 chain with R166G
modifications: mutant protein R166G amino acid sequence
catalytic efficiency towards glutaryl-CoA, hexanedioyl-CoA, acetyl-CoA, and acetyl-CoA ([6]; compared with wild type towards malonyl-CoA): equivalent to that of the wild-type protein towards malonyl-CoA
